Experimental findings from ChEMBL document CHEMBL1137656, “Effects of serum on in vitro susceptibility testing of echinocandins” (Antimicrob Agents Chemother, 2007) are described below.

Data set [1] deals with Nakaseomyces glabratus. Nature of the data set: Antifungal activity against Candida glabrata isolate 0049-038 after 24 hrs by CLSI M27-A2 broth microdilution method in presence of RPMI 1640 medium. The format is functional. The following applies: isolate 0049-038, 24 h. Background: Dilution methods test growth across graded concentrations, often in twofold steps.
Data set [2] has as its system Aspergillus niger. Nature of the data set: Ratio of MIC50 for Aspergillus niger isolate 0001-073 in presence of 50% human serum to MIC50 for Aspergillus niger isolate 0001-073 in presence of RPMI 1640 medium. It counts as functional.
Data set [3] relates to Pichia kudriavzevii. Nature of the data set: Antifungal activity against Candida krusei isolate 0001-058 after 24 hrs by CLSI M27-A2 broth microdilution method in presence of 50% human serum. The following applies: isolate 0001-058, 24 h. The format is functional.
Data set [4] in a line: Protein binding in mouse serum at 1 to 1000 ug/mL by scintillation counting. The format is ADME, cell-free. The following applies: read-out: PB (converted).
The test system of data set [5] is Clavispora lusitaniae. Nature of the data set: Antifungal activity against Candida lusitaniae isolate 0013-002 after 24 hrs by CLSI M27-A2 broth microdilution method in presence of RPMI 1640 medium. The format is functional. The following applies: isolate 0013-002, 24 h.
Data set [6] relates to Aspergillus niger. Nature of the data set: Antifungal activity against Aspergillus niger isolate 0001-073 after 24 hrs by CLSI M38-A broth microdilution method in presence of 50% human serum. The format is functional. The following applies: isolate 0001-073, 24 h.
In data set [7] the test system is Aspergillus fumigatus. Nature of the data set: Antifungal activity against Aspergillus fumigatus isolate 0002-0016 after 24 hrs by CLSI M38-A broth microdilution method in presence of 50% human serum. The following applies: isolate 0002-0016, 24 h. It counts as functional.
The nature of data set [8]: Protein binding in human serum at 1 to 1000 ug/mL by scintillation counting. It counts as ADME, cell-free. The following applies: read-out: PB (converted).
Data set [9] deals with Pichia kudriavzevii. Nature of the data set: Antifungal activity against Candida krusei isolate 0013-054 after 24 hrs by CLSI M27-A2 broth microdilution method in presence of 50% human serum. The format is functional. The following applies: isolate 0013-054, 24 h.

Numbered stars: 1 amine (or outer) side, 2 acyl side, 3 side chain; on linkers, the order of the positions; unused ones are H or OH. Bridge positions count the residues as written; N and C are the ends. Square brackets hold non-standard residues; d marks the D form. Peptide text beside a SMILES is read from it. * marks the point of attachment. hTyr(3S-OH,4S-OH,3'-OSO3H) = N[C@H](C(=O)O)[C@H](O)[C@@H](O)c1ccc(O)c(OS(=O)(=O)O)c1; pTerphenylCO(4''-OnC5H11) = CCCCCOc1ccc(-c2ccc(-c3ccc(C(=O)*)cc3)cc2)cc1; Orn(4R-OH,5R-OH) = O=C([C@H](C[C@@H](O)[C@@H](O)N[*:3])N[*:1])[*:2]; hTyr(3S-OH,4S-OH) = N[C@H](C(=O)O)[C@H](O)[C@@H](O)c1ccc(O)cc1; Pro(3S-OH,4S-Me) = C[C@H]1CN[C@H](C(=O)O)[C@H]1O; X1 = CCCCCOc1ccc(-c2cc(-c3ccc(C(=O)*)cc3)no2)cc1; Gln(3R-OH) = NC(=O)C[C@@H](O)[C@H](N)C(=O)O; Hyp = O=C(O)[C@@H]1C[C@@H](O)CN1

Consider `CC[C@H](C)C[C@H](C)CCCCCCCCC(=O)N[C@H]1C[C@@H](O)[C@@H](NCCN)NC(=O)[C@@H]2[C@@H](O)CCN2C(=O)[C@H]([C@H](O)CCN)NC(=O)[C@H]([C@H](O)[C@@H](O)c2ccc(O)cc2)NC(=O)[C@@H]2C[C@@H](O)CN2C(=O)[C@H]([C@@H](C)O)NC1=O` [CASPOFUNGIN], for which the MIC50 (commonly the lowest concentration that inhibits either 50% of growth or 50% of the strains tested, depending on the study) in data set [1] stood at 0.5 µg/mL; in data set [3], 0.5 µg/mL; in data set [5] it was 0.25 µg/mL; in [6] it was 0.25 µg/mL; in [7], 128 µg/mL; in data set [9], 2 µg/mL. The Ratio in [2] came to 512. Further, the fraction unbound in [4] and in data set [8] was 0.04 each time.

Consider `CCCCCOc1ccc(-c2cc(-c3ccc(C(=O)N[C@H]4C[C@@H](O)[C@@H](O)NC(=O)[C@@H]5[C@@H](O)[C@@H](C)CN5C(=O)[C@H]([C@H](O)CC(N)=O)NC(=O)[C@H]([C@H](O)[C@@H](O)c5ccc(O)c(OS(=O)(=O)O)c5)NC(=O)[C@@H]5C[C@@H](O)CN5C(=O)[C@H]([C@@H](C)O)NC4=O)cc3)no2)cc1` [MICAFUNGIN] (X1-[Orn(4R-OH,5R-OH)]T[Hyp][hTyr(3S-OH,4S-OH,3'-OSO3H)][Gln(3R-OH)][Pro(3S-OH,4S-Me)]; lactam 1-C), for which the MIC50 in data set [1] was found to be 0.004 µg/mL; in data set [3] it was 2 µg/mL; in data set [5] it was 0.008 µg/mL; in [6], 0.25 µg/mL; in data set [7] it was 2 µg/mL; in data set [9], 8 µg/mL. Further, in data set [2], the Ratio is listed as 128.

`CCCCCOc1ccc(-c2ccc(-c3ccc(C(=O)N[C@H]4C[C@@H](O)[C@@H](O)NC(=O)[C@@H]5[C@@H](O)[C@@H](C)CN5C(=O)[C@H]([C@@H](C)O)NC(=O)[C@H]([C@H](O)[C@@H](O)c5ccc(O)cc5)NC(=O)[C@@H]5C[C@@H](O)CN5C(=O)[C@H]([C@@H](C)O)NC4=O)cc3)cc2)cc1` [ANIDULAFUNGIN] ({pTerphenylCO(4''-OnC5H11)}-[Orn(4R-OH,5R-OH)]T[Hyp][hTyr(3S-OH,4S-OH)]T[Pro(3S-OH,4S-Me)]; lactam 1-C): the MIC50 in data set [1] amounted to 0.0625 µg/mL; in [3], 1 µg/mL; in [5], 0.002 µg/mL; in data set [6] it was 0.5 µg/mL; in [7] it was 128 µg/mL; in data set [9], 4 µg/mL. In addition, the Ratio in [2] came out at 512.
